Source: the supplement of paper PMC4862054

Legend:
Settings in all cases: incubation time: 72 h
MFM-223 [1] = assay: normalised response (% of control), CellTiter-Glo; higher = more viable cells (100 = DMSO, 0 = benzethonium chloride kill control)
Description: (§1)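 DSRT, 72 h incubation, CellTox Green / CellTiter-Glo readout. Signal is normalised to DMSO and benzethonium chloride controls. Value is the normalised response at dose 3.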

HCC1599 [2] = assay: as above
Description: as §1

Hs578T [3] = assay: as above
Description: as §1

MCF-10A [4] = assay: as above
Description: as §1

MDA-MB-436 [5] = assay: as above
Description: as §1

CAL-148 [6] = assay: as above
Description: as §1

CAL-120 [7] = assay: as above
Description: as §1

MDA-MB-231 [8] = assay: as above
Description: as §1

HCC1937 [9] = assay: as above
Description: as §1

MDA-MB-468 [10] = assay: as above
Description: as §1

CAL-85-1 [11] = assay: as above
Description: as §1

BT-474 [12] = assay: as above
Description: as §1

HCC1143 [13] = assay: as above
Description: as §1

MDA-MB-453 [14] = assay: as above
Description: as §1

CAL-51 [15] = assay: as above
Description: as §1

HDQ-P1 [16] = assay: as above
Description: as §1

DU-4475 [17] = assay: as above
Description: as §1

SK-BR-3 = assay: as above
Description: as §1

BT-549 [18] = assay: as above
Description: as §1

MFM-223 [19] = assay: normalised response (% of control), CellTox Green; higher = less cell death (100 = DMSO, 0 = benzethonium chloride kill control)
How it was run: (§2)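 Breast cancer cell lines (20 µl suspension) were seeded into 384-well plates holding compound at 5 concentrations in 10-fold steps over a compound-specific 10,000-fold range, then incubated 72 h. CellTox Green fluorescence (485/520 nm) was read first, then CellTiter-Glo luminescence after 10 min at room temperature. Each plate was normalised to 0.1 % DMSO (100) and a positive kill control (0). Each value is the normalised signal at a single concentration of the series.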

HCC1599 [20] = assay: as above
How it was run: as §2

Hs578T [21] = assay: as above
How it was run: as §2

MCF-10A [22] = assay: as above
How it was run: as §2

CAL-120 [23] = assay: as above
How it was run: as §2

MDA-MB-231 [24] = assay: as above
How it was run: as §2

HCC1937 [25] = assay: as above
How it was run: as §2

MDA-MB-468 [26] = assay: as above
How it was run: as §2

CAL-85-1 [27] = assay: as above
How it was run: as §2

BT-474 [28] = assay: as above
How it was run: as §2

HCC1143 [29] = assay: as above
How it was run: as §2

MDA-MB-453 [30] = assay: as above
How it was run: as §2

CAL-51 [31] = assay: as above
How it was run: as §2

HDQ-P1 [32] = assay: as above
How it was run: as §2

DU-4475 [33] = assay: as above
How it was run: as §2

BT-549 [34] = assay: as above
How it was run: as §2

MDA-MB-436 [35] = assay: as above
How it was run: as §2

CAL-148 [36] = assay: as above
How it was run: as §2

Structure (SMILES)	normalised response (MFM-223 [1]) [%]	normalised response (HCC1599 [2]) [%]	normalised response (Hs578T [3]) [%]	normalised response (MCF-10A [4]) [%]	normalised response (MDA-MB-436 [5]) [%]	normalised response (CAL-148 [6]) [%]	normalised response (CAL-120 [7]) [%]	normalised response (MDA-MB-231 [8]) [%]	normalised response (HCC1937 [9]) [%]	normalised response (MDA-MB-468 [10]) [%]	normalised response (CAL-85-1 [11]) [%]	normalised response (BT-474 [12]) [%]	normalised response (HCC1143 [13]) [%]	normalised response (MDA-MB-453 [14]) [%]	normalised response (CAL-51 [15]) [%]	normalised response (HDQ-P1 [16]) [%]	normalised response (DU-4475 [17]) [%]	normalised response (SK-BR-3) [%]	normalised response (BT-549 [18]) [%]	normalised response (MFM-223 [19]) [%]	normalised response (HCC1599 [20]) [%]	normalised response (Hs578T [21]) [%]	normalised response (MCF-10A [22]) [%]	normalised response (CAL-120 [23]) [%]	normalised response (MDA-MB-231 [24]) [%]	normalised response (HCC1937 [25]) [%]	normalised response (MDA-MB-468 [26]) [%]	normalised response (CAL-85-1 [27]) [%]	normalised response (BT-474 [28]) [%]	normalised response (HCC1143 [29]) [%]	normalised response (MDA-MB-453 [30]) [%]	normalised response (CAL-51 [31]) [%]	normalised response (HDQ-P1 [32]) [%]	normalised response (DU-4475 [33]) [%]	normalised response (BT-549 [34]) [%]	normalised response (MDA-MB-436 [35]) [%]	normalised response (CAL-148 [36]) [%]
Cn1cc(C2=Nc3cc(NC(=O)C(N)C4CCCCC4)cc4c3C2=CNNC4=O)cn1 (stereo not drawn) (100 nM)	77.8	63.3	90.7	81.7	91.6	82.7	89	93.5	95.1	88.8	87.1	94.4	90.9	74.1	96.7	95.2	95.1	74.1	93.5	98.5	89.5	98.8	62.9	92	96.3	76.5	106	73	97.7	101	85	96.1	107	96.7	87.2	–	–
COc1cc2c(cc1O)CC[C@@H]1[C@@H]2CC[C@]2(C)[C@@H](O)CC[C@@H]12 [2-methoxyestradiol] (100 nM)	94.2	89.4	102	94.5	101	90.6	101	102	93.4	103	97.3	98.5	100	91.1	63.5	103	101	89	95.5	102	102	103	61.8	98	99.3	97.3	69.5	87.6	94	–	101	78.3	107	98.7	110	87.4	56.1
CC1(C)CCC(CN2CCN(c3ccc(C(=O)NS(=O)(=O)c4ccc(NCC5CCOCC5)c([N+](=O)[O-])c4)c(Oc4cnc5[nH]ccc5c4)c3)CC2)=C(c2ccc(Cl)cc2)C1 [ABT-199] (100 nM)	99.2	94.2	107	98.2	96.7	98.9	101	99.3	98.2	93.6	101	96.7	102	90.7	92.4	104	102	101	100	79.9	99.2	104	81.7	101	105	89.3	–	94.6	101	91.6	101	101	93.6	99.3	–	83	84.2
O=C1CN2Cc3c(ccc(Cl)c3Cl)N=C2N1 [Anagrelide] (100 nM)	101	104	98.5	98.4	94.3	94.1	96	94.7	95.8	99.5	97	93.7	101	111	63.1	97.2	96.9	103	105	68.7	86.8	104	100	98	96.2	103	146	104	99.4	108	92.5	51.3	101	98.5	77.3	105	100
